The text below walks through data of US10941129B2, “Benzyl phenyl ether derivative, preparation method therefor, and pharmaceutical composition and uses thereof” (Institute of Materia Medica, Chinese Academy of Medical …, priority 2016, dated 2021).

A word on the IC50: it is the concentration at which inhibition is half-maximal.

Bounds are passed on as bounds.

Sequence of interaction between PD-1 and PD-L1 (Q9NZQ7 19-238): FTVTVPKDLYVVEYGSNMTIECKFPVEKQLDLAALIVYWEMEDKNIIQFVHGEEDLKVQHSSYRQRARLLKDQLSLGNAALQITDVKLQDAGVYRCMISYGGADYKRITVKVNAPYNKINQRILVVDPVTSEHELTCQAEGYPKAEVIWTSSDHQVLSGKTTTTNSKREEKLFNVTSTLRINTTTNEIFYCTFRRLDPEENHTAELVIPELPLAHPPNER

The target of this test is interaction between PD-1 and PD-L1 (Homo sapiens (Human), UniProt Q9NZQ7). Nature of the test: Cisbio PD-1/PD-L1 binding assay kit (HTRF). To be noted: read-out: IC50, inhibitory activity at molecular level on the interaction between PD-1 and PD-L1. The text has this:
1. In vitro activity evaluation: Cisbio PD-1/PD-L1 binding assay kit was applied for the detection method of in vitro enzymology level.
1) Principle: PD-1 protein is with HIS tag, and PD-1 ligand PD-L1 is with hFc tag. Eu labeled anti-hFc antibody and XL665 labeled anti-HIS antibody are combined with the above two label proteins respectively. After laser excitation, energy can be transferred from donor Eu to receptor XL665, allowing XL665 to glow.
2) Experimental method: The specific method can be referred to Cisbio's PD-1/PD-L1 Kit (item 64CUS000C-2). Reagents should be dispensed in the following order. For 384-well white ELISA plate, 2 μl of diluent or target compound diluted with diluent was added to each well, and then 4 μl of PD-1 protein and 4 μl of PD-L1 protein were added per well, incubated for 15 min at room temperature; and 10 μl of a mixture of anti-Tag1-Eu3^+ and anti-Tag2-XL665 was added per well and incubated for 1 h to 4 h at room temperature and the fluorescence signals at 665 nm and 620 nm were measured with an Envison instrument. HTRF rate=(665 nm/620 nm)*10^4. 8-10 concentrations were detected for each compound and IC50 was calculated by Graphpad software.
In general terms: TR-FRET usually uses a lanthanide donor and a delayed reading to cut background.
For `CC(=O)NCCNCc1ccc(OCc2cccc(-c3ccc4c(c3)OCCO4)c2Br)cc1OCc1cccc(C#N)c1` [Example 16, N-acetylaminoethyl-4-(2-bromo-3-(2,3-dihydrobenzo[b][1,4]dioxin-6-yl)benzyloxy)-2-(3-cyanobenzyloxy) benzylamine], the IC50 came out at 268 nM.

Regarding `COc1ccc(-c2cccc(COc3ccc(CN[C@@H](CO)C(=O)O)c(OCc4cccc(C#N)c4)c3)c2Br)cc1OC` [Example 13, N-(4-(2-bromo-3-(3,4-dimethoxyphenyl)benzyloxy)-2-(3-cyanobenzyloxy)benzyl) serine], the IC50 was found to be 5350 nM.

As for `N#Cc1cccc(COc2cc(OCc3cccc(-c4ccccc4)c3Br)ccc2CN2CCC[C@H]2C(=O)O)c1` [Example 4, N-(4-(2-bromo-3-phenylbenzyloxy)-2-(3-cyanobenzyloxy)benzyl) proline], the IC50 turned out to be 59.2 nM.

On to `COc1ccc(-c2cccc(COc3ccc(CNCCNC(C)=O)c(OCc4cccc(C#N)c4)c3)c2Br)cc1OC` [Example 14, N-acetylaminoethyl-4-(2-bromo-3-(3,4-dimethoxyphenyl)benzyloxy)-2-(3-cyanobenzyloxy) benzylamine], for which the IC50 is 6650 nM.

In the case of `C[C@H](O)[C@@H](NCc1ccc(OCc2cccc(-c3ccccc3)c2Br)cc1OCc1cccc(C#N)c1)C(=O)O` (stereo in doubt) [Example 8, N-(4-(2-bromo-3-phenylbenzyloxy)-2-(3-cyanobenzyloxy)benzyl) threonine], the 50% inhibitory concentration (IC50) was determined as 134 nM.

Take `C[C@@H](NCc1cc(Cl)c(OCc2cccc(-c3ccccc3)c2Br)cc1OCc1cccc(C#N)c1)C(=O)O` (stereo in doubt) [Example 25, N-(4-(2-bromo-3-phenylbenzyloxy)-5-chloro-2-(3-cyanobenzyloxy)benzyl)alanine]: the IC50 was determined as 3.16 nM.

On to `N#Cc1cccc(COc2cc(OCc3cccc(-c4ccccc4)c3Br)ccc2CNC2CCOCC2)c1` [Example 9, N-(tetrahydro-2H-pyran-4-yl)-4-(2-bromo-3-phenylbenzyloxy)-2-(3-cyanobenzyloxy) benzylamine], for which the 50% inhibitory concentration (IC50) worked out at 788 nM.

On to `N#Cc1cccc(COc2cc(OCc3cccc(-c4ccc5c(c4)OCCO5)c3Br)ccc2CN[C@@H](CO)C(=O)O)c1` [Example 18, N-(4-(2-bromo-3-(2,3-dihydrobenzo[b][1,4]dioxin-6-yl)benzyloxy)-2-(3-cyanobenzyloxy)benzyl) serine], for which the IC50 is 38.5 nM.

As to `CSCC[C@H](NCc1ccc(OCc2cccc(-c3ccccc3)c2Br)cc1OCc1cccc(C#N)c1)C(=O)O` [Example 7, N-(4-(2-bromo-3-phenylbenzyloxy)-2-(3-cyanobenzyloxy)benzyl) methionine], the IC50 stood at 4590 nM.

`C[C@H](O)[C@@H](NCc1cc(Cl)c(OCc2cccc(-c3ccccc3)c2Br)cc1OCc1cccc(C#N)c1)C(=O)O` (stereo in doubt) [Example 26, N-(4-(2-bromo-3-phenylbenzyloxy)-5-chloro-2-(3-cyanobenzyloxy)benzyl) threonine]: the IC50 was not above 10 nM.

Turning to `CS(=O)(=O)c1cccc(COc2cc(OCc3cccc(-c4ccccc4)c3Br)c(Cl)cc2CN[C@H](CO)C(=O)O)c1` (stereo in doubt) [Example 27, N-(4-(2-bromo-3-phenylbenzyloxy)-5-chloro-2-(3-methanesulfonylbenzyloxy)benzyl) serine], the half-inhibitory concentration (IC50) is not above 10 nM.

On to `COc1ccc(-c2cccc(COc3ccc(CN[C@@H](C)C(=O)O)c(OCc4cccc(C#N)c4)c3)c2Br)cc1OC` [Example 17, N-(4-(2-bromo-3-(3,4-dimethoxyphenyl)benzyloxy)-2-(3-cyanobenzyloxy)benzyl) alanine], for which the IC50 amounted to 3160 nM.

For `C[C@H](O)[C@@H](NCc1ccc(OCc2cccc(-c3ccc4c(c3)OCCO4)c2Br)cc1OCc1cccc(C#N)c1)C(=O)O` (stereo in doubt) [Example 19, N-(4-(2-bromo-3-(2,3-dihydrobenzo[b][1,4]dioxin-6-yl)benzyloxy)-2-(3-cyanobenzyloxy)benzyl) threonine], the IC50 amounted to 18.1 nM.

`N#Cc1cccc(COc2cc(OCc3cccc(-c4ccccc4)c3Br)ccc2CN[C@@H](CO)C(=O)O)c1` [Example 2, N-(4-(2-bromo-3-phenylbenzyloxy)-2-(3-cyanobenzyloxy)benzyl) serine]: the IC50 worked out at 29.4 nM.

Turning to `C[C@H](NCc1ccc(OCc2cccc(-c3ccccc3)c2Br)cc1OCc1cccc(C#N)c1)C(=O)O` [Example 6, N-(4-(2-bromo-3-phenylbenzyloxy)-2-(3-cyanobenzyloxy)benzyl) alanine], the IC50 turned out to be 178 nM.

For the compound `CS(=O)(=O)c1cccc(COc2cc(OCc3cccc(-c4ccccc4)c3Br)c(Cl)cc2CN2CCCC[C@H]2C(=O)O)c1` (stereo in doubt) [Example 28, N-(4-(2-bromo-3-phenylbenzyloxy)-5-chloro-2-(3-methanesulfonylbenzyloxy)benzyl) pipecolinic acid], the IC50 was not above 10 nM.

In the case of `COc1ccc(-c2cccc(COc3ccc(CNCCO)c(OCc4cccc(C#N)c4)c3)c2Br)cc1OC` [Example 11, N-hydroxylethyl-4-(2-bromo-3-(3,4-dimethoxyphenyl)benzyloxy)-2-(3-cyanobenzyloxy) benzylamine], the IC50 came to 7870 nM.

For the compound `N#Cc1cccc(COc2cc(OCc3cccc(-c4ccc5c(c4)OCCO5)c3Br)c(Cl)cc2CN2CCCC[C@H]2C(=O)O)c1` [Example 24, (S)—N-(4-(2-bromo-3-(2,3-dihydrobenzo[b][1,4]dioxin-6-yl)benzyloxy)-5-chloro-2-(3-cyanobenzyloxy)benzyl) pipecolinic acid], the IC50 came to 67.5 nM.

Regarding `N#Cc1cccc(COc2cc(OCc3cccc(-c4ccccc4)c3Br)ccc2CNCCO)c1` [Example 5, N-hydroxylethyl-4-(2-bromo-3-phenylbenzyloxy)-2-(3-cyanobenzyloxy) benzylamine], the IC50 amounted to 307 nM.

Turning to `N#Cc1cccc(COc2cc(OCc3cccc(-c4ccccc4)c3Br)c(Cl)cc2CN[C@@H](CO)C(=O)O)c1` [Example 20, N-(4-(2-bromo-3-phenylbenzyloxy)-5-chloro-2-(3-cyanobenzyloxy)benzyl) serine], the half-inhibitory concentration (IC50) was found to be 2.48 nM.

With `CCN(CCO)Cc1ccc(OCc2cccc(-c3ccccc3)c2Br)cc1OCc1cccc(C#N)c1` [Example 3, N-Ethyl-N-hydroxylethyl-4-(2-bromo-3-phenylbenzyloxy)-2-(3-cyanobenzyloxy) benzylamine], the IC50 was 230 nM.

Regarding `CC(=O)NCCNCc1ccc(OCc2cccc(-c3ccccc3)c2Br)cc1OCc1cccc(C#N)c1` [Example 1, N-acetylaminoethyl-4-(2-bromo-3-phenylbenzyloxy)-2-(3-cyanobenzyloxy) benzylamine], the IC50 was 439 nM.
